Reference: PMC6409085, “Three odorant-binding proteins are involved in the behavioral response of Sogatella furcifera to rice plant volatiles” (PeerJ, 2019)
Values joined by “and” are separate entries in the source; they are usually repeats but may differ in a detail not shown here. Equal entries are not always repeated.

How the values were obtained:
Experiment in all cases: biochemical
Assay type in all cases: binding
[1] = target: SfurOBP1 (Sogatella furcifera, UniProt V5T8N5); conditions: for Fluorescence competitive binding assay, fluorescence intensity: OBP1, three replicate columns
SfurOBP1, sequence (V5T8N5 entry or part of it): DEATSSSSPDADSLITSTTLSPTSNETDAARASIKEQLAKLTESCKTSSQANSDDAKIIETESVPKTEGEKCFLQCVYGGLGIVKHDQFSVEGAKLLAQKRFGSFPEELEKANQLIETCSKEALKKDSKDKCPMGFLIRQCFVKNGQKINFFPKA
Outline: (§1)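 1-NPN displacement assay with odorant competitor at 2–20 µM; protein and probe both 2.0 µM at pH 7.4. Ki is calculated from IC50 using the protein/1-NPN dissociation constant.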

[2] = target: SfurOBP11 (Sogatella furcifera, UniProt V5T6E3)
SfurOBP11, sequence (V5T6E3 entry or part of it): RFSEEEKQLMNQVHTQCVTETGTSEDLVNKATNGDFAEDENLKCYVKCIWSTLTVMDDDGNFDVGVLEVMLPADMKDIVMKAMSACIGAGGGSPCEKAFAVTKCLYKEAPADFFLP
Outline: as §1

[3] = target: SfurOBP2 (Sogatella furcifera, UniProt V5T759)
SfurOBP2, sequence (V5T759 entry or part of it): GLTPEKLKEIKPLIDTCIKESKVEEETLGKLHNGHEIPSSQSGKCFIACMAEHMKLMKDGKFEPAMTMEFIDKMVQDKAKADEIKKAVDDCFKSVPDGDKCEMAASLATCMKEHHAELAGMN
Outline: as §1

[4] = target: SfurOBP3 (Sogatella furcifera, UniProt V5T818); conditions: for Fluorescence competitive binding assay, fluorescence intensity: OBP3, three replicate columns
SfurOBP3, sequence (V5T818 entry or part of it): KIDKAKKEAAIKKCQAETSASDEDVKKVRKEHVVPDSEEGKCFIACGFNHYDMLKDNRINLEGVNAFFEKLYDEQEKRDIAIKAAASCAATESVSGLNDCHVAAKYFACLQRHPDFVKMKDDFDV
Outline: as §1

- Fluorescence competitive binding assay, fluorescence intensity ([1]; ligand concentration 2 (μM)): 7330 and 7109 and 7550
- Fluorescence competitive binding assay, fluorescence intensity ([1]; ligand concentration 4 (μM)): 7885 and 9070 and 8350
- Fluorescence competitive binding assay, fluorescence intensity ([1]; ligand concentration 6 (μM)): 9355 and 9996 and 9183
- Fluorescence competitive binding assay, fluorescence intensity ([1]; ligand concentration 8 (μM)): 11640 and 10265 and 9349
- Fluorescence competitive binding assay, fluorescence intensity ([1]; ligand concentration 10 (μM)): 10389 and 10452 and 10917
- Fluorescence competitive binding assay, fluorescence intensity ([1]; ligand concentration 12 (μM)): 10679 and 10989 and 10151
- Fluorescence competitive binding assay, fluorescence intensity ([1]; ligand concentration 14 (μM)): 12105 and 10979 and 11552
- Fluorescence competitive binding assay, fluorescence intensity ([1]; ligand concentration 16 (μM)): 10141 and 15672 and 8010
- Fluorescence competitive binding assay, fluorescence intensity ([1]; ligand concentration 18 (μM)): 13868 and 12649 and 12554
- Fluorescence competitive binding assay, fluorescence intensity ([1]; ligand concentration 20 (μM)): 12803 and 13119 and 10975
- IC50 ([1]; SfurOBP1, protein and 1-NPN both 2.0 µM, competitor 2-20 µM, read-out: IC50): > 20 µM
- IC50 ([2]; SfurOBP11, protein and 1-NPN both 2.0 µM, competitor 2-20 µM, read-out: IC50): 3.5 µM
- Fluorescence intensity, fluorescence competitive binding assay, OBP11 ([2]; ligand concentration 2, replicate 1): 16266
- Fluorescence intensity, fluorescence competitive binding assay, OBP11 ([2]; ligand concentration 2, replicate 2): 15087
- Fluorescence intensity, fluorescence competitive binding assay, OBP11 ([2]; ligand concentration 2, replicate 3): 17001
- Fluorescence intensity, fluorescence competitive binding assay, OBP11 ([2]; ligand concentration 4, replicate 1): 17687
- Fluorescence intensity, fluorescence competitive binding assay, OBP11 ([2]; ligand concentration 4, replicate 2): 17526
- Fluorescence intensity, fluorescence competitive binding assay, OBP11 ([2]; ligand concentration 4, replicate 3): 17848
- Fluorescence intensity, fluorescence competitive binding assay, OBP11 ([2]; ligand concentration 6, replicate 1): 16356
- Fluorescence intensity, fluorescence competitive binding assay, OBP11 ([2]; ligand concentration 6, replicate 2): 18409
- Fluorescence intensity, fluorescence competitive binding assay, OBP11 ([2]; ligand concentration 6, replicate 3): 17383
- Fluorescence intensity, fluorescence competitive binding assay, OBP11 ([2]; ligand concentration 8, replicate 1): 17184
- Fluorescence intensity, fluorescence competitive binding assay, OBP11 ([2]; ligand concentration 8, replicate 2): 18342
- Fluorescence intensity, fluorescence competitive binding assay, OBP11 ([2]; ligand concentration 8, replicate 3): 18652
- Fluorescence intensity, fluorescence competitive binding assay, OBP11 ([2]; ligand concentration 10, replicate 1): 18889
- Fluorescence intensity, fluorescence competitive binding assay, OBP11 ([2]; ligand concentration 10, replicate 2): 17441
- Fluorescence intensity, fluorescence competitive binding assay, OBP11 ([2]; ligand concentration 10, replicate 3): 20338
- Fluorescence intensity, fluorescence competitive binding assay, OBP11 ([2]; ligand concentration 12, replicate 1): 19011
- Fluorescence intensity, fluorescence competitive binding assay, OBP11 ([2]; ligand concentration 12, replicate 2): 18892
- Fluorescence intensity, fluorescence competitive binding assay, OBP11 ([2]; ligand concentration 12, replicate 3): 20835
- Fluorescence intensity, fluorescence competitive binding assay, OBP11 ([2]; ligand concentration 14, replicate 1): 21007
- Fluorescence intensity, fluorescence competitive binding assay, OBP11 ([2]; ligand concentration 14, replicate 2): 21377
- Fluorescence intensity, fluorescence competitive binding assay, OBP11 ([2]; ligand concentration 14, replicate 3): 20817
- Fluorescence intensity, fluorescence competitive binding assay, OBP11 ([2]; ligand concentration 16, replicate 1): 23140
- Fluorescence intensity, fluorescence competitive binding assay, OBP11 ([2]; ligand concentration 16, replicate 2): 21703
- Fluorescence intensity, fluorescence competitive binding assay, OBP11 ([2]; ligand concentration 16, replicate 3): 22422
- Fluorescence intensity, fluorescence competitive binding assay, OBP11 ([2]; ligand concentration 18, replicate 1): 27356
- Fluorescence intensity, fluorescence competitive binding assay, OBP11 ([2]; ligand concentration 18, replicate 2): 26038
- Fluorescence intensity, fluorescence competitive binding assay, OBP11 ([2]; ligand concentration 18, replicate 3): 25306
- Fluorescence intensity, fluorescence competitive binding assay, OBP11 ([2]; ligand concentration 20, replicate 1): 26659
- Fluorescence intensity, fluorescence competitive binding assay, OBP11 ([2]; ligand concentration 20, replicate 2): 25183
- Fluorescence intensity, fluorescence competitive binding assay, OBP11 ([2]; ligand concentration 20, replicate 3): 25906
- IC50 ([3]; SfurOBP2, protein and 1-NPN both 2.0 µM, competitor 2-20 µM, read-out: IC50): > 20 µM
- Fluorescence competitive binding assay, OBP2 (raw fluorescence reading) ([3]; ligand concentration 2 (unit not given), replicate column 1 of 3): 15935
- Fluorescence competitive binding assay, OBP2 (raw fluorescence reading) ([3]; ligand concentration 2 (unit not given), replicate column 2 of 3): 15877
- Fluorescence competitive binding assay, OBP2 (raw fluorescence reading) ([3]; ligand concentration 2 (unit not given), replicate column 3 of 3): 16010
- Fluorescence competitive binding assay, OBP2 (raw fluorescence reading) ([3]; ligand concentration 4 (unit not given), replicate column 1 of 3): 16483
- Fluorescence competitive binding assay, OBP2 (raw fluorescence reading) ([3]; ligand concentration 4 (unit not given), replicate column 2 of 3): 17483
- Fluorescence competitive binding assay, OBP2 (raw fluorescence reading) ([3]; ligand concentration 4 (unit not given), replicate column 3 of 3): 15472
- Fluorescence competitive binding assay, OBP2 (raw fluorescence reading) ([3]; ligand concentration 6 (unit not given), replicate column 1 of 3): 19539
- Fluorescence competitive binding assay, OBP2 (raw fluorescence reading) ([3]; ligand concentration 6 (unit not given), replicate column 2 of 3): 15243
- Fluorescence competitive binding assay, OBP2 (raw fluorescence reading) ([3]; ligand concentration 6 (unit not given), replicate column 3 of 3): 16407
- Fluorescence competitive binding assay, OBP2 (raw fluorescence reading) ([3]; ligand concentration 8 (unit not given), replicate column 1 of 3): 19867
- Fluorescence competitive binding assay, OBP2 (raw fluorescence reading) ([3]; ligand concentration 8 (unit not given), replicate column 2 of 3): 20728
- Fluorescence competitive binding assay, OBP2 (raw fluorescence reading) ([3]; ligand concentration 8 (unit not given), replicate column 3 of 3): 17103
- Fluorescence competitive binding assay, OBP2 (raw fluorescence reading) ([3]; ligand concentration 10 (unit not given), replicate column 1 of 3): 20161
- Fluorescence competitive binding assay, OBP2 (raw fluorescence reading) ([3]; ligand concentration 10 (unit not given), replicate column 2 of 3): 19779
- Fluorescence competitive binding assay, OBP2 (raw fluorescence reading) ([3]; ligand concentration 10 (unit not given), replicate column 3 of 3): 18765
- Fluorescence competitive binding assay, OBP2 (raw fluorescence reading) ([3]; ligand concentration 12 (unit not given), replicate column 1 of 3): 19327
- Fluorescence competitive binding assay, OBP2 (raw fluorescence reading) ([3]; ligand concentration 12 (unit not given), replicate column 2 of 3): 19917
- Fluorescence competitive binding assay, OBP2 (raw fluorescence reading) ([3]; ligand concentration 12 (unit not given), replicate column 3 of 3): 19157
- Fluorescence competitive binding assay, OBP2 (raw fluorescence reading) ([3]; ligand concentration 14 (unit not given), replicate column 1 of 3): 20768
- Fluorescence competitive binding assay, OBP2 (raw fluorescence reading) ([3]; ligand concentration 14 (unit not given), replicate column 2 of 3): 19570
- Fluorescence competitive binding assay, OBP2 (raw fluorescence reading) ([3]; ligand concentration 14 (unit not given), replicate column 3 of 3): 20399
- Fluorescence competitive binding assay, OBP2 (raw fluorescence reading) ([3]; ligand concentration 16 (unit not given), replicate column 1 of 3): 18977
- Fluorescence competitive binding assay, OBP2 (raw fluorescence reading) ([3]; ligand concentration 16 (unit not given), replicate column 2 of 3): 19385
- Fluorescence competitive binding assay, OBP2 (raw fluorescence reading) ([3]; ligand concentration 16 (unit not given), replicate column 3 of 3): 18242
- Fluorescence competitive binding assay, OBP2 (raw fluorescence reading) ([3]; ligand concentration 18 (unit not given), replicate column 1 of 3): 20374
- Fluorescence competitive binding assay, OBP2 (raw fluorescence reading) ([3]; ligand concentration 18 (unit not given), replicate column 2 of 3): 20001
- Fluorescence competitive binding assay, OBP2 (raw fluorescence reading) ([3]; ligand concentration 18 (unit not given), replicate column 3 of 3): 19071
- Fluorescence competitive binding assay, OBP2 (raw fluorescence reading) ([3]; ligand concentration 20 (unit not given), replicate column 1 of 3): 20399
- Fluorescence competitive binding assay, OBP2 (raw fluorescence reading) ([3]; ligand concentration 20 (unit not given), replicate column 2 of 3): 20700
- Fluorescence competitive binding assay, OBP2 (raw fluorescence reading) ([3]; ligand concentration 20 (unit not given), replicate column 3 of 3): 18461
- Fluorescence competitive binding assay, fluorescence intensity ([4]; ligand concentration 2): 81785 and 76872 and 83999
- Fluorescence competitive binding assay, fluorescence intensity ([4]; ligand concentration 4): 101881 and 87909 and 87470
- Fluorescence competitive binding assay, fluorescence intensity ([4]; ligand concentration 6): 71457 and 61006 and 51881
- Fluorescence competitive binding assay, fluorescence intensity ([4]; ligand concentration 8): 71819 and 64171 and 69972
- Fluorescence competitive binding assay, fluorescence intensity ([4]; ligand concentration 10): 63459 and 67080 and 84824
- Fluorescence competitive binding assay, fluorescence intensity ([4]; ligand concentration 12): 64327 and 73125 and 73637
- Fluorescence competitive binding assay, fluorescence intensity ([4]; ligand concentration 14): 85412 and 71741 and 71210
- Fluorescence competitive binding assay, fluorescence intensity ([4]; ligand concentration 16): 78313 and 80279 and 70309
- Fluorescence competitive binding assay, fluorescence intensity ([4]; ligand concentration 18): 77162 and 77902 and 55555
- Fluorescence competitive binding assay, fluorescence intensity ([4]; ligand concentration 20): 68113 and 75065 and 101895
- IC50 ([4]; SfurOBP3, protein and 1-NPN both 2.0 µM, competitor 2-20 µM, read-out: IC50): > 20 µM
Structure (SMILES): C/C(=C\CO)CCC[C@H](C)CCC[C@H](C)CCCC(C)C [plant alcohol]
